Data from patent US20110136751A1, “Use of Polyphenols in the Treatment of Cancer” (Green Molecular, priority 2009, published 2011).

Experiments:
Experiment in all cases: IC50 on cell viability, Cell Counting Kit-8
Format in all cases: cell-based
MNNG-HOS = settings: Homo sapiens; code 29, MNNG-HOS, Bone Osteosarcoma; cell viability 120 h after administration
Description: (§1) A panel of 36 human cell lines were first tested in terms of population doubling time and growth curves to determine the conditions for further assays. The cells were also tested to determine the dose of radiation that produces 50% cell viability (D50). […] Cell viability was determined 120 h after the administration of the compounds using the Cell Counting Kit-8 (Dojindo Molecular Technologies, Inc, Rockville, Md.). In the experiments, 0.1% SDS and 1% DMSO were used as positive and negative controls, respectively. Final concentrations of the compounds used in the experiments are listed below in Table 5: […]

HPAF-II = settings: Homo sapiens; code 32, HPAF-II, Pancreas Adenocarcinoma; cell viability 120 h after administration
Description: as §1

LN229 = settings: Homo sapiens, LN-229; code 11, LN229, Brain Gliblastoma; cell viability 120 h after administration
Description: as §1

MSTO-211H = settings: Homo sapiens; code 21, MSTO-211H, Lung Biphasic Mesothelioma; cell viability 120 h after administration
Description: as §1

A-204 = settings: Homo sapiens, A204; code 35, A-204, Muscle Rhabdomyosarcoma; cell viability 120 h after administration
Description: as §1

BxPC-3 = settings: Homo sapiens; code 31, BxPC-3, Pancreas Adenocarcinoma; cell viability 120 h after administration
Description: as §1

HBL-52 = settings: Homo sapiens; code 19, HBL-52, Brain Meningioma; cell viability 120 h after administration
Description: as §1

T-47D = settings: Homo sapiens, T47D; code 4, T-47D, Breast Carcinoma; cell viability 120 h after administration
Description: as §1

Colo 201 = settings: Homo sapiens; code 5, Colo 201, Colorectal Adenocarcinoma; cell viability 120 h after administration
Description: as §1

A549 = settings: Homo sapiens; code 22, A549, Lung Carcinoma; cell viability 120 h after administration
Description: as §1

MCF-7 = settings: Homo sapiens, MCF7; code 2, MCF-7, Breast Adenocarcinoma; cell viability 120 h after administration
Description: as §1

SW-872 = settings: Homo sapiens, SW872; code 18, SW-872, Connective tissue Fibrosarcoma; cell viability 120 h after administration
Description: as §1

LN-18 = settings: Homo sapiens; code 10, LN-18, Brain Gliblastoma; cell viability 120 h after administration
Description: as §1

HCT 116 = settings: Homo sapiens; code 6, HCT 116, Colorectal Carcinoma; cell viability 120 h after administration
Description: as §1

CHP-126 = settings: Homo sapiens; code 14, CHP-126, Brain Neuroblastoma; cell viability 120 h after administration
Description: as §1

SK-MEL-2 = settings: Homo sapiens; code 25, SK-MEL-2, Skin Melanoma; cell viability 120 h after administration
Description: as §1

A375 = settings: Homo sapiens, A-375; code 23, A375, Skin Melanoma; cell viability 120 h after administration
Description: as §1

MEWO = settings: Homo sapiens; code 26, MEWO, Skin Melanoma; cell viability 120 h after administration
Description: as §1

HCT-15 = settings: Homo sapiens; code 7, HCT-15, Colorectal Adenocarcinoma; cell viability 120 h after administration
Description: as §1

HT-1080 = settings: Homo sapiens; code 9, HT-1080, Fibrosarcoma; cell viability 120 h after administration
Description: as §1

SK-N-AS = settings: Homo sapiens; code 17, SK-N-AS, Brain Neuroblastoma; cell viability 120 h after administration
Description: as §1

HT-29 = settings: Homo sapiens; code 8, HT-29, Colorectal Adenocarcinoma; cell viability 120 h after administration
Description: as §1

A-172 = settings: Homo sapiens; code 12, A-172, Brain Gliblastoma; cell viability 120 h after administration
Description: as §1

MDA-MB-231 = settings: Homo sapiens; code 3, MDA-MB-231, Breast Adenocarcinoma; cell viability 120 h after administration
Description: as §1

SH-SY5Y = settings: Homo sapiens; code 16, SH-SY5Y, Brain Neuroblastoma; cell viability 120 h after administration
Description: as §1

SK-ES-1 = settings: Homo sapiens, SK-ES1; code 30, SK-ES-1, Bone Osteosarcoma; cell viability 120 h after administration
Description: as §1

BT-20 = settings: Homo sapiens; code 1, BT-20, Breast Carcinoma; cell viability 120 h after administration
Description: as §1

A-673 = settings: Homo sapiens, A673; code 36, A-673, Muscle Rhabdomyosarcoma; cell viability 120 h after administration
Description: as §1

NCI-H4BO = settings: Homo sapiens; code 20, NCI-H4BO, Lung Carcinoma; cell viability 120 h after administration
Description: as §1

KHOS-NP = settings: Homo sapiens; code 28, KHOS-NP, Bone Osteosarcoma; cell viability 120 h after administration
Description: as §1

SMILES | IC50 (MNNG-HOS) | IC50 (HPAF-II) | IC50 (LN229) | IC50 (MSTO-211H) | IC50 (A-204) | IC50 (BxPC-3) | IC50 (HBL-52) | IC50 (T-47D) | IC50 (Colo 201) | IC50 (A549) | IC50 (MCF-7) | IC50 (SW-872) | IC50 (LN-18) | IC50 (HCT 116) | IC50 (CHP-126) | IC50 (SK-MEL-2) | IC50 (A375) | IC50 (MEWO) | IC50 (HCT-15) | IC50 (HT-1080) | also measured
Oc1ccc(/C=C/c2cc(O)cc(O)c2)cc1 [RI, trans-3,5,4′-trihydroxystilbene, reference compound] | 11.7 µM | 86.1 µM | 11.2 µM | 6.37 µM | 19 µM | 13.6 µM | 29.1 µM | 25.6 µM | 37.4 µM | 16.3 µM | 49.9 µM | 81.1 µM | 28.4 µM | 31.4 µM | 26.7 µM | 10.7 µM | 24.9 µM | 17.1 µM | > 100 µM | 10.2 µM | IC50 (SK-N-AS): 68.3 µM; IC50 (HT-29): 27.9 µM; IC50 (A-172): 47.6 µM; IC50 (MDA-MB-231): 15.1 µM; IC50 (SH-SY5Y): 26.1 µM; IC50 (SK-ES-1): 27.2 µM; IC50 (BT-20): 66 µM; IC50 (A-673): 6.73 µM; IC50 (NCI-H4BO): 11.5 µM; IC50 (KHOS-NP): 20 µM
COc1cc(/C=C/c2ccc(O)cc2)cc(OC)c1 [t-PTER, trans-3,5-dimethoxy-4′-hydroxystilbene] | 12.3 µM | 55.6 µM | 14.3 µM | 12.3 µM | 23.4 µM | 31.1 µM | 33.2 µM | 35 µM | 29.8 µM | 25.8 µM | 39.4 µM | 25.8 µM | 18.1 µM | 45.2 µM | 1.42 µM | 17.3 µM | 75.3 µM | 39 µM | 49.5 µM | 17.8 µM | IC50 (SK-N-AS): 29.1 µM; IC50 (HT-29): 28.4 µM; IC50 (A-172): 29.7 µM; IC50 (MDA-MB-231): 62.8 µM; IC50 (SH-SY5Y): 31.7 µM; IC50 (SK-ES-1): 42.7 µM; IC50 (BT-20): 96.9 µM; IC50 (A-673): 5.8 µM; IC50 (NCI-H4BO): 16.6 µM; IC50 (KHOS-NP): 25.6 µM
O=c1c(O)c(-c2ccc(O)c(O)c2)oc2cc(O)cc(O)c12 [QUER, quercetin] | 9.91 µM | 20.2 µM | 8.12 µM | 19.8 µM | 18.1 µM | 15.9 µM | 22.8 µM | 10.7 µM | 18.1 µM | 13.4 µM | 19.7 µM | 3.51 µM | 9.72 µM | 56.9 µM | 19.1 µM | 11.6 µM | 19.6 µM | 8.59 µM | 12.4 µM | 5.54 µM | IC50 (SK-N-AS): 19.8 µM; IC50 (HT-29): 18.7 µM; IC50 (A-172): 10 µM; IC50 (MDA-MB-231): 20.7 µM; IC50 (SH-SY5Y): 4.38 µM; IC50 (SK-ES-1): 8.2 µM; IC50 (BT-20): 9.21 µM; IC50 (A-673): 4.09 µM; IC50 (NCI-H4BO): 10.1 µM; IC50 (KHOS-NP): 15.7 µM
